Consider one compound from PMC9312958, “A Novel and Selective Dopamine Transporter Inhibitor, (S)-MK-26, Promotes Hippocampal Synaptic Plasticity and Restores Effort-Related Motivational Dysfunctions” (Biomolecules, 2022).

For assay [1], the target named is T1, hNET (Homo sapiens, UniProt P23975).
T1 construct: expressed in transfected cells
Kind of assay: Uptake inhibition assay in HEK293 cells expressing hNET. Format: cell-based. On the procedure: Human embryonic kidney 293 cells (HEK293 cells) were cultivated in Dulbecco’s Modified Eagle Medium (DMEM), containing 10% heat-inactivated fetal calf serum (FCS; 100 mL/L), streptomycin (100 μg/100 mL) and penicillin ([…]). Geneticin (50 μg/mL) was added to select cells stably expressing the human isoforms of dopamine, norepinephrine and serotonin transporter (hDAT, hNET, and hSERT, respectively) as described earlier. Cell lines were maintained in culture in humidified atmosphere (37 °C, 5% CO2), and passaged when reached 80–90% confluency. Cells expressing the desired transporter were seeded the day before the experiment (40,000 cells per well) or two days before the experiments (20,000 cells per well) onto poly-D-lysine (PDL)-coated 96-well plates.
Uptake inhibition experiments were carried out as reported previously. Ninety-six-well plates containing hDAT-, hNET- or hSERT-expressing cells were washed with Krebs-HEPES buffer (KHB; 25 mM HEPES, 120 mM NaCl, 5 mM KCl, 1.2 mM CaCl2, and 1.2 mM MgSO4 and 5 mM D-glucose, pH = 7.3). Cells were then preincubated with increasing concentrations of the compound diluted in KHB for 6 min. Following the pre-incubation of the cells with the compound, the tritiated substrate (hDAT: 0.15 μM [^3H]DA; hNET: 0.05 μM [^3H]MPP^+; hSERT: 0.1 μM [^3H]5-HT) was added to the wells. The uptake was terminated by removal of tritiated substrate and by washing the cells with ice-cold KHB after 1 min (for hDAT and hSERT) or 3 min (for hNET). Thereafter, 200 μL of Ultima Gold^TM XR scintillation cocktail (PerkinElmer, MA, USA) was added, the plates were shaken and the radioactivity accumulated into the cells determined in a Wal-lac 1450 MicroBeta TriLux Liquid Scintillation Counter & Lumi (GMI, Ramsey, MN, USA). Non- specific tritiated substrate uptake was measured in the presence of 100 μM cocaine (for hDAT and hNET) or 10 μM paroxetine (for hSERT), and subtracted from the data. Uptake in the presence of test drugs was normalized to the uptake in the presence of the vehicle.

Assay [2] has as its system adult male Sprague Dawley rats. Kind of assay: FR5/chow feeding choice task. Type of assay: in vivo, rat. On the procedure:
Pharmacological agents: (S)-MK-26 was obtained from the Lubec Laboratory (University of Vienna, Austria) and dissolved in dimethyl sulfoxide (DMSO) (10%), Tween 80 (15%), and 0.9% saline (75%). The DMSO/Tween 80/saline mixture was administered as the vehicle control. The dose range was selected as 3.75–45.0 mg/kg based on its DAT affinity and pilot studies. It was administered 30 min before testing. TBZ (9,10-dimethoxy3-(2-methylpropyl)-1,3,4,6,7, 11b hexahydrobenzo[a]quinolizin2-one) was obtained from Tocris Bioscience (Ellisville, MO) and was dissolved in DMSO (20%) and 0.9% saline (80%) and was titrated with 1.0 N HCl until the drug was dissolved at a pH of 4.0–4.5. The DMSO/saline solution with equal amounts of HCl was administered as the vehicle control. The selected dose was 1.0mg/kg based on the previous research from our laboratory. It was administered 120 min prior to testing.
FR5/chow feeding choice task: A total of 8 adult male Sprague Dawley rats (Envigo Sprague Dawley, Indianapolis, IN, USA; weights 275–299 g upon arrival) were pair-housed in a colony maintained at 23 °C, with a 12 h light/dark cycle (lights on 07:00). Rats were food deprived to 85% of their free-feeding body weight with modest growth throughout the experiment and water was available ad libitum in their home cages. All the animal protocols were approved by the University of Connecticut Institutional Animal Care and Use Committee, and the experiments were completed according to National Institutes of Health guidelines.
Behavioral sessions were conducted in operant chambers (28 × 23 × 23 cm^3; Med Associates, Fairfax, VT, USA) with 30 min sessions 5 days/week. Rats were initially trained to lever press on magazine training for 3 days, followed by an FR1 schedule for 3 days (high-carbohydrate 45-mg pellets, Bio-Serv, Frenchtown, NJ, USA), and then moved to the FR5 schedule. After 5 weeks of training on the FR5 schedule, lab chow was introduced as the concurrently available choice food (Laboratory Diet, 5P00 Prolab RMH 3000, Purina Mills, St. Louis, MO, USA; typically 15–20 g). At the end of each session, rats were immediately removed from the chambers. The number of lever pressing was recorded and the amount of consumed chow was calculated by weighing the remaining food, including spillage. Rats were trained on the FR5/chow feeding choice task for 5 weeks, after which drug testing began.
To test the effects of (S)-MK-26 on FR5/Chow feeding choice task, trained rats were administered either with TBZ (1.0 mg/kg) or vehicle 120 min before testing, and (S)-MK-26 also with doses of 15.0, 30.0, 45.0 mg/kg or vehicle 30 min before testing, via intraperitoneal (IP) injections on drug testing days. A repeated-measures design was utilized where each rat received each drug treatment in a randomly varied order, once per week. The following five treatment combinations were given: TBZ vehicle + (S)-MK-26 vehicle; 1.0 mg/kg TBZ + (S)-MK-26 vehicle; 1.0 mg/kg TBZ + 15.0 mg/kg (S)-MK-26; 1.0 mg/kg TBZ + 30.0 mg/kg (S)-MK-26; 1.0 mg/kg TBZ + 45.0 mg/kg (S)-MK-26. Next, to see if the effects of lower doses, the following four treatment combinations were given in a repeated measure design: TBZ vehicle + (S)-MK-26 vehicle; 1.0 mg/kg TBZ + (S)-MK-26 vehicle; 1.0 mg/kg TBZ + 3.75 mg/kg (S)-MK-26; 1.0 mg/kg TBZ + 7.5 mg/kg (S)-MK-26.

The target of assay [3] is T1, hNET. Kind of assay: hNET radioligand binding assay (CHO cells, [3H]nisoxetine). On the procedure:
Binding affinity to the hDAT, hNET and hSERT expressed in CHO cells was evaluated in in vitro radioligand binding assays. Binding assays were conducted according to the standard and validated protocols under conditions defined by the contractor (Eurofins Cerep SA, Celle-’Evescault, France; study number 100054410). Antagonist radioligand assays were conducted for the human norepinephrine, the human dopamine, and the serotonin transporters (using CHO cells), using [^3H]nisoxetine (1 nM), [^3H]BTCP (4 nM), and [^3H]imipramine (2 nM) as ligands and desipramine (1 µM), BTCP (10 µM), and imipramine (10 µM) as non-specific agents, respectively (with scintillation counting as detection method).

[4] abbreviates: 15.0, 30.0 and 45.0 mg/kg i.p. coadministered with 1.0 mg/kg TBZ.

T1 sequence (P23975 whole entry): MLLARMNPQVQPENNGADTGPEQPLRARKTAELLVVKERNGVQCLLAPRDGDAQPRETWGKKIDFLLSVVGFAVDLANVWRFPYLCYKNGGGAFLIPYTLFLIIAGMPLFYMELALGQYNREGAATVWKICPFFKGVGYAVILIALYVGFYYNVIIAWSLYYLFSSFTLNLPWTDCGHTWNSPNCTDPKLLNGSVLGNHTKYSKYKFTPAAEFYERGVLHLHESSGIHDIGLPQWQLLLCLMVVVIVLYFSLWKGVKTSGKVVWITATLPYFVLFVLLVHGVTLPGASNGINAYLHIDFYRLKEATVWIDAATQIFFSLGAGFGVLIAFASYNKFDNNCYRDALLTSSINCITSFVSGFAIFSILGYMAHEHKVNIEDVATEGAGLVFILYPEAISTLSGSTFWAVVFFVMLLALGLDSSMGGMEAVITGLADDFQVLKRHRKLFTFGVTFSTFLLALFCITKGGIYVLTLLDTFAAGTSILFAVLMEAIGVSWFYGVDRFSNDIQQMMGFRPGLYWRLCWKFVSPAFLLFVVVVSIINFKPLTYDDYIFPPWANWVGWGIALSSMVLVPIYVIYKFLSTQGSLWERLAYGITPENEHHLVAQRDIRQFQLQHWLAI

Broadly, the IC50 is the point on the concentration scale where inhibition reaches its midpoint. A lower IC50 goes with higher potency. Take `[O-][S@@+](Cc1cncs1)C(c1cccc(Cl)c1)c1cccc(Cl)c1` [(S)-MK-26, (S)-5-(((B(3-chlorophenyl)methyl)sulphinyl)methyl)thiazole]: inhibition in assay [1] was half-maximal at 63.5 µM (IC50). Moreover, in assay [2] (setting [4]), the “effect on TBZ-induced change in chow intake” value is given as “significantly attenuated the effects of TBZ” and the “effect on TBZ-induced change in lever pressing” value was “significantly attenuated the effects of TBZ”. The “potency in effort-based choice tests compared to other modafinil analogs” value in assay [2] (comparison with earlier studies) is given as “lower potency than (S,S)-CE-158”. For the same compound, the “reversal of TBZ effects on lever pressing and chow intake” value in assay [2] (low-dose progression 3.75 and 7.5 mg/kg i.p. with 1.0 mg/kg TBZ) is “failed to reverse the effects of TBZ”. For the same compound, the “binding to NET” value in assay [3] is recorded as “trifling bindings”.
